Measured values from patent US6372719B1, “ανβ3 integrin antagonists in combination with chemotherapeutic agents” (priority 1998, dated 2002).

Legend:
Rice Leydig tumor cells = experiment: Tumor growth inhibition, Rice Leydig tumor in SCID mice
Experimental: Tumor cells for implantation were taken from cells either grown in tissue culture (Leydig, M21) or serially passaged as tumors in mice and prepared as tumor brei (LLC, PC-3) by methodology known in the art. Mice were injected subcutaneously in the proximal dorsal midline with 5×10^6 tumor cells and administration of test αvβ3 integrin antagonist compound was initiated the evening of the same day either prior to the chemotherapeutic agent, delayed and on the same day as the chemotherapeutic agent or delayed and following the chemotherapeutic agent. Tumor volumes were measured at intervals over the course of the experiments. Tumors were measured with a vernier caliper and volumes were determined using the formula for the volume of a cylinder: tumor volume=width^2×length×0.52. […] On the final day of the experiment, tumors were dissected free and weighed. […] The data are expressed as the mean +/− SEM. Student's and Mann-Whitney tests were used to assess differences between means or medians using the InStat software package.

LLC tumor = experiment: Tumor growth inhibition, LLC tumor in mice
Experimental: Tumor cells for implantation were taken from cells either grown in tissue culture (Leydig, M21) or serially passaged as tumors in mice and prepared as tumor brei (LLC, PC-3) by methodology known in the art. Mice were injected subcutaneously in the proximal dorsal midline with 5×10^6 tumor cells and administration of test αvβ3 integrin antagonist compound was initiated the evening of the same day either prior to the chemotherapeutic agent, delayed and on the same day as the chemotherapeutic agent or delayed and following the chemotherapeutic agent. Tumor volumes were measured at intervals over the course of the experiments. Tumors were measured with a vernier caliper and volumes were determined using the formula for the volume of a cylinder: tumor volume=width^2×length×0.52. Blood was routinely drawn, for serum calcium determination and plasma drug concentration, 6 hours post-dosing on day 4 or 5 and again 12 hours post-dosing on the day of sacrifice. On the final day of the experiment, tumors were dissected free and weighed. Calcium concentrations of serum samples were determined calorimetrically using a clinical diagnostic kit. The data are expressed as the mean +/− SEM. Student's and Mann-Whitney tests were used to assess differences between means or medians using the InStat software package.

M21 human melanoma = experiment: Tumor growth inhibition, M21 human melanoma in mice; type: in vivo, SCID mice; conditions: cyclophosphamide 150 mg/kg ip on days 14, 16 and 18
Experimental: In this model, cyclophosphamide was administered (150 mg/kg;ip) on days 14, 16 and 18, and XII (10 mg/kg, BID, PO) was administered continuously after the chemotherapeutic beginning on day 21.

[1] = cisplatin 10 mg/kg ip day 5, XII at 10 mg/kg

N.N.[Cl][Pt][Cl] [Cisplatin, cisplatin]
Tumor growth inhibition (Rice Leydig tumor cells; cisplatin at maximum tolerated dose, XII 10 mg/kg PO, compared to control-treated mice): approximately 50% | Effect on survival time (Rice Leydig tumor cells; tumor bearing SCID mice): little effect | Median survival time (LLC tumor; [1]): 33 days | Time to develop a tumor >500 mm^3 (LLC tumor; [1]): 22.4 days | Effect on growth of the LLC tumor (LLC tumor; cisplatin single ip dose 10 mg/kg on day 5, XII 1 and 10 mg/kg, oral, BID from day 1): significantly retarded

O=P1(N(CCCl)CCCl)NCCCO1 (stereo not drawn) [Cyclophosphamide, cyclophosphamide]
Inhibition of growth of M21 tumors (M21 human melanoma): significantly inhibited
